Data taken from US10464907B2, “Compound having HSP90 inhibitory activity or pharmaceutically acceptable salt thereof, and medical use thereof” (priority 2016, dated 2019).
Where two headings read alike, the source gives them in different places.

Columns and labels:
H1975 cells = experiment: MTS cell viability in H1975 cells resistant to Gefitinib; type: cell-based; conditions: read-out: H1975 (EC50; μM)
Method: To confirm the cell viability according to the concentration of the compound synthesized in H1975 cells (ATCC) resistant to Gefitinib, MTS [3-(4,5-dimethylthiazol-2-yl)-5-[…]carboxymethoxyphenyl)-2-(4-sulfophenyl)-2H-tetrazolium, inner salt] analysis was performed. When the cells were cultured so as to occupy 80% of the bottom of the culture dish, the cells were detached and diluted with RPMI 1640 medium to a concentration of 1.5×10^3 cells/well. Each 100 μL of the suspension was added to each well of a 96-well plate and cultured for 14 hours. Then, the medium was changed to the culture solution treated with compound of each concentration each concentration (1a-g: 0, 1, 5, 10, 30, 50 or 100 μM, 14a-I, 16a, b, 21a-f: 0, 0.01, 0.1, 1, 5, 10, 30, 50, 70 or 100 μM), and cultured for 3 days. Each 20 μL of the MTS solution was dispensed into each well and reacted for 1 hour at 37° C. in an incubator supplied with 5% CO2.

H1975 = experiment: MTS cell proliferation / survival assay; type: cell-based; conditions: Homo sapiens; for inhibition at 10 µM: NCI-H1975, read-out: Inhibition rate at 10 μM (%); for inhibition at 30 µM: NCI-H1975, read-out: Inhibition rate at 30 μM (%)
Method: Sk-Br3 (Korean cell line bank), a breast cancer cell, and H1975 cell (ATCC), a nonsmall cell lung cancer, were cultured in RPMI 1640 containing 25 mM HEPES (4-(2-hydroxyethyl)-1-piperazineethanesulfonic acid) and RPMI 1640 containing L-glutamine (containing streptomycin ([…]), penicillin (100 units/mL) and 10% fetal bovine serum (FBS)).
The cells were cultured under a humidified atmosphere of 37° C. and 5% CO2.
Next, non-metastatic lung cancer cells were treated with Compound 17 and the cell proliferation rate or cell survival rate was measured by MTS [3-(4,5-dimethylthiazol-2-yl)-5-(3-carboxymethoxyphenyl)-2-2H-tetrazolium, inner salt] analysis.
Cells were dispensed in 96-well plates at 3000 cell/well (Sk-Br3) and 2000 cell/well (H1975), and 100 μL of the medium was added per well and then was incubated overnight.
Cell proliferation was evaluated using the Promega Cell Titer 96 Aqueous One Solution cell proliferation assay.
After compound and cell culture, 20 μL of assay substrate solution was added to each well and incubated at 37° C. for an additional 1 hour.
Cell proliferation was confirmed by measuring the absorbance at 490 nm using a microplate reader (Tecan Infinite F200 Proplate reader).

LogP = type: physicochemical; conditions: called measured values of LogP
Method: All experimental data were analyzed using Prism software (version 5.0, Graphpad Software, San Diego, Calif.). In addition, tPSA (Topological Polar Surface Area) calculated using Chemdraw software and the measured values of LogP are shown in Tables 1 and 2 below.

HSP90α = HSP90α (Homo sapiens (Human), UniProt P07900); experiment: Fluorescence polarization assay, binding ability to HSP90, benzamide compounds; conditions: GA-FITC 100 nM; read-out: HSP90 FP) (IC50; nM)
Method: 1 M dithiothreitol (DTT), 10 mg/m: BGG (bovine gamma globulin) were added to hexafluorobenzene (HFB) buffer (20 mM HEPES pH 7.3, 50 mM KCl, 5 mM MgCl2, 20 mM Na2MoO4, 0.01% NP4O, 3rd distilled water) and mixed. Then, 100 nM […] (GA)-FITC (Fluorescein isothiocyanate) was added and reacted at room temperature for 10 minutes. Each 100 μL of the mixture was dispensed into the control wells of a 96-well plate, 2 μL of HSP90α was added to the remaining mixture, and each 100 μL of the other wells was dispensed. […] The binding ability of the compound to HSP90 was expressed as mP (millipolarization unit=1000 mP unit).

| Compound | EC50 (H1975 cells; Homo sapiens, NCI-H1975, 72 h) | logP (LogP) | IC50 (HSP90α) | other results |
| --- | --- | --- | --- | --- |
| CC(C)c1cc(C(=O)N(C)Cc2ccccc2)c(O)cc1O [Compound 21g, N-benzyl-2,4-dihydroxy-5-isopropyl-N-methylbenzamide] | 4.1 µM |  |  |  |
| O=C(NCc1ccccc1)c1cc(Cl)c(O)cc1O [Compound 14a, N-Benzyl-5-chloro-2,4-dihydroxybenzamide] | 86.2 µM |  |  |  |
| O=C(c1cc(Cl)c(O)cc1O)N1CCCCC1 [Compound 11b, (5-chloro-2,4-dihydroxyphenyl) (piperidin-1-yl)methanone] |  | 1.69 |  | inhibition at 10 µM (H1975): 7.6%; inhibition at 30 µM (H1975): 26.3% |
| CN(Cc1ccc2c(c1)OCO2)C(=O)c1cc(Cl)c(O)cc1O [Compound 14e, N-(benzo[d][1,3]dioxol-5-ylmethyl)-5-chloro-2,4-dihydroxy-N-methylbenzamide] | 103 µM |  | 585 nM |  |
| COc1cc(CN(C)C(=O)c2cc(Cl)c(O)cc2O)cc(OC)c1OC [Compound 14f, 5-chloro-2,4-dihydroxy-N-methyl-N-(3,4,5-trimethoxybenzyl) benzamide] |  |  | 1460 nM | EC50 (H1975 cells; H1975, 3 days): 73.1 µM |
| CCNC(=O)c1ccc(CN(C)C(=O)c2cc(C(C)C)c(O)cc2O)cc1 [Compound 21e, N-(4-(ethylcarbamoyl)benzyl)-2,4-dihydroxy-5-isopropyl-N-methylbenzamide] | 0.46 µM |  | 6.5 nM |  |
| Cc1cccc(CN(C)C(=O)c2cc(Cl)c(O)cc2O)c1 [Compound 14i, 5-chloro-2,4-dihydroxy-N-methyl-N-(3-methylbenzyl)benzamide] | 47.5 µM |  |  |  |
| CC(=O)N1CCN(C(=O)c2cc(Cl)c(O)cc2O)CC1 [Compound 11f, 1-(4-(5-chloro-2,4-dihydroxybenzoyl)piperazin-1-yl)ethanone] |  | 0.25 |  | inhibition at 10 µM (H1975): 0%; inhibition at 30 µM (H1975): 10.5% |
| CN1CCN(C(=O)c2cc(Cl)c(O)cc2O)CC1 [Compound 11e, (5-chloro-2,4-dihydroxyphenyl)(4-methylpiperazin-1-yl)methanone] |  | 1.23 |  | inhibition at 10 µM (H1975): 26.3%; inhibition at 30 µM (H1975): 48.7% |
| Cc1ccccc1CN(C)C(=O)c1cc(Cl)c(O)cc1O [Compound 16a, 5-chloro-2,4-dihydroxy-N-methyl-N-(2-methylbenzyl)benzamide] | 49.3 µM |  |  |  |
| Cc1ccc(CN(C)C(=O)c2cc(Cl)c(O)cc2O)cc1 [Compound 16b, 5-chloro-2,4-dihydroxy-N-methyl-N-(4-methylbenzyl)benzamide] | 34.3 µM |  | 558 nM |  |
| O=C(c1cc(Cl)c(O)cc1O)N1CCNCC1 [Compound 11d, (5-chloro-2,4-dihydroxyphenyl) (piperazin-1-yl)methanone] |  | 0.65 |  | inhibition at 10 µM (H1975): 0%; inhibition at 30 µM (H1975): 0% |
| COc1ccc(CN(C)C(=O)c2cc(Cl)c(O)cc2O)cc1 [Compound 14c, 5-chloro-2,4-dihydroxy-N-(4-methoxybenzyl)-N-methylbenzamide] | 16.7 µM |  | 135 nM |  |
| CN(Cc1ccccc1)C(=O)c1cc(Cl)c(O)cc1O [Compound 14b, N-Benzyl-5-chloro-2,4-dihydroxy-N-methylbenzamide] | 35.5 µM |  | 413 nM |  |
| COc1ccc(CN(C)C(=O)c2cc(Cl)c(O)cc2O)cc1OC [Compound 14d, 5-chloro-N-(3,4-dimethoxybenzyl)-2,4-dihydroxy-N-methylbenzamide] | 33.4 µM |  | 362 nM |  |
| O=C1CCN(C(=O)c2cc(Cl)c(O)cc2O)C1 [Compound 11h, 1-(5-chloro-2,4-dihydroxybenzoyl) pyrrolidin-3-one] |  | 0.84 |  | inhibition at 10 µM (H1975): 0%; inhibition at 30 µM (H1975): 0% |
| CCNC(=O)c1ccc(CN(C)C(=O)c2cc(Cl)c(O)cc2O)cc1 [Compound 21b, 5-chloro-N-(4-(ethylcarbamoyl)benzyl)-2,4-dihydroxy-N-methylbenzamide] | 21.7 µM |  | 612 nM |  |
| CCCNC(=O)c1ccc(CN(C)C(=O)c2cc(Cl)c(O)cc2O)cc1 [Compound 21c, 5-chloro-2,4-dihydroxy-N-methyl-N-(4-(propylcarbamoyl)benzyl)benzamide] | 20.8 µM |  | 454 nM |  |
| O=C(c1cc(Cl)c(O)cc1O)N1CCCC1 [Compound 11a, (5-chloro-2,4-dihydroxyphenyl) (pyrrolidin-1-yl)methanone] |  | 1.13 |  | inhibition at 10 µM (H1975): 8.1%; inhibition at 30 µM (H1975): 22.1% |
| O=C(c1cc(Cl)c(O)cc1O)N1CCOCC1 [Compound 11c, (5-chloro-2,4-dihydroxyphenyl) (morpholino)methanone] |  | 0.66 |  | inhibition at 10 µM (H1975): 24.3%; inhibition at 30 µM (H1975): 44% |
| COc1cc(CN(C)C(=O)c2cc(Cl)c(O)cc2O)c(Br)c(OC)c1OC [Compound 14h, N-(2-bromo-3,4,5-trimethoxybenzyl)-5-chloro-2,4-dihydroxy-N-methylbenzamide] | 34.3 µM |  | 528 nM |  |
| CN1CCN(C(=O)c2cc(Cl)c(O)cc2O)C(c2ccccc2)C1 (centres unmarked) [Compound 11j, (5-chloro-2,4-dihydroxyphenyl)(4-methyl-2-phenylpiperazin-1-yl)methanone] |  | 3.22 |  |  |
| O=C1CCN(C(=O)c2cc(Cl)c(O)cc2O)CC1 [Compound 11i, 1-(5-chloro-2,4-dihydroxybenzoyl)piperidin-4-one] |  | 0.6 |  |  |
| COc1cc(CN(C)C(=O)c2cc(Cl)c(O)cc2O)c(Cl)c(OC)c1OC [Compound 14g, 5-chloro-N-(2-chloro-3,4,5-trimethoxybenzyl)-2,4-dihydroxy-N-methylbenzamide] | 33.8 µM |  | 429 nM |  |
| CNC(=O)c1ccc(CN(C)C(=O)c2cc(Cl)c(O)cc2O)cc1 [Compound 21a, 5-chloro-2,4-dihydroxy-N-methyl-N-(4-(methylcarbamoyl)benzyl) benzamide] |  |  | 496 nM | EC50 (H1975 cells; H1975, 3 days): 34.8 µM |
| O=C1CN(C(=O)c2cc(Cl)c(O)cc2O)CCN1 [Compound 11g, 4-(5-chloro-2,4-dihydroxybenzoyl)piperazin-2-one] |  | 0.45 |  | inhibition at 10 µM (H1975): 0%; inhibition at 30 µM (H1975): 0% |
| CNC(=O)c1ccc(CN(C)C(=O)c2cc(C(C)C)c(O)cc2O)cc1 [Compound 21d, 2,4-dihydroxy-5-isopropyl-N-methyl-N-(4-(methylcarbamoyl)benzyl) benzamide] |  |  | 11.4 nM | EC50 (H1975 cells; H1975, 3 days): 0.83 µM |
